Laboratory results published in patent US6452005B1, “JAK-3 inhibitors for treating allergic disorders” (Parker Hughes Institute, priority 1999, dated 2002).
Where two headings read alike, the source gives them in different places.

Key:
mast cell = conditions: cited from earlier work
human JAK3 [1] = biological target: T1, human JAK3 (Homo sapiens, UniProt P52333); assay: JAK3 kinase inhibition (Table 1 IC50, immune complex kinase assay); type: biochemical; conditions: for IC50: Table 1, measured inhibition values for JAK3 kinase
T1 construct: KL-2 EBV-transformed human lymphoblastoid B cells (native JAK3 kinase assays); endogenous in cells; host or cells: KL-2 EBV-transformed human lymphoblastoid B cell line
T1 sequence (P52333 1-1124): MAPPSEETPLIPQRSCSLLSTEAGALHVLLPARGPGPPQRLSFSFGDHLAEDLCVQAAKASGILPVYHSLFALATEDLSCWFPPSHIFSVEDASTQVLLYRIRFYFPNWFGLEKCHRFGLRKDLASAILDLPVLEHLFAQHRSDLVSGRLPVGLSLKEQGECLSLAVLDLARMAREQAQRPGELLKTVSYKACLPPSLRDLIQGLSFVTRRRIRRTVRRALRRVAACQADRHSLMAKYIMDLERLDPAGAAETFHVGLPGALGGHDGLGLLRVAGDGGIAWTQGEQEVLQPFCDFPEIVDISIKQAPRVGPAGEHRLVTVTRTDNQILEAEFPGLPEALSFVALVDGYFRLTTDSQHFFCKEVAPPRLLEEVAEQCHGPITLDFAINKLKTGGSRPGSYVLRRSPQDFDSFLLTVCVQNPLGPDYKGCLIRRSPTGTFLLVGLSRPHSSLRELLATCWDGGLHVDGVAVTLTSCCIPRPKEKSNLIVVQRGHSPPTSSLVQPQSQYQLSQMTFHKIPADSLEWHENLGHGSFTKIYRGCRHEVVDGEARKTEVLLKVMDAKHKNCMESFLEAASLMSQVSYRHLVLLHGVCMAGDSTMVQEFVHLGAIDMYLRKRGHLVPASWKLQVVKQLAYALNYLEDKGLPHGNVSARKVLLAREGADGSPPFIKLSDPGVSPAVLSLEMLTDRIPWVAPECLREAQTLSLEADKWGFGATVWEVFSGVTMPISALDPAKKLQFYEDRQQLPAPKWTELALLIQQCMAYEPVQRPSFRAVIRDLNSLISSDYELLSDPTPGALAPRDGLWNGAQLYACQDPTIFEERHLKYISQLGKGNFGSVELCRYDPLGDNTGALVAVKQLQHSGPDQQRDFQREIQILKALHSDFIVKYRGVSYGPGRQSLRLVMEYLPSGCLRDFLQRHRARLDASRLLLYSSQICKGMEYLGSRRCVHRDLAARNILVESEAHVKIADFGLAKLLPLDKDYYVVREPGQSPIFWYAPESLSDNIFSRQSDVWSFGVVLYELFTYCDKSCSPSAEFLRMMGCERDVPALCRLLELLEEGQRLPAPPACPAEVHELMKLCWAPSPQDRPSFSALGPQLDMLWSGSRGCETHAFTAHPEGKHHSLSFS
Procedure: Immune Complex Kinase Assays.
(§1) KL-2 EBV-transformed human lymphoblastoid B cells (native JAK3 kinase assays) or insect ovary cells (recombinant JAK3 kinase assays) were lysed with NP-40 lysis buffer (50 mM Tris, pH 8, 150 mM NaCl, 5 mM EDTA, 1% NP-40, 100 μM sodium orthovanadate, 100 μM sodium molybdate, 8 μg/ml aprotinin, 5 μg/ml leupeptin, and 500 μM PMSF) and centrifuged 10 minutes at 13000×g to remove insoluble material. Samples were immunoprecipitated with antisera prepared against JAK3. The antisera were diluted and immune complexes collected by incubation with 15 μl protein A Sepharose. After 4 washes with NP-40 lysis buffer, the protein A Sepharose beads were washed once in kinase buffer (20 mM MOPS, pH 7.0, 10 mM MgCl2) and resuspended in the same buffer. Reactions were initiated by the addition of 25 μCi γ[^32P] ATP (5000 Ci/mMole) and unlabeled ATP to a final concentration of 5 μM. Reactions were terminated by boiling for 4 min in SDS sample buffer. Samples were run on 9.5% SDS polyacrylamide gels and labeled proteins will be detected by autoradiography. Following electrophoresis, kinase gels were dried onto Whatman 3M filter paper and subjected to phosphoimaging on a Molecular Imager (Bio-Rad, Hercules, Calif.) as well as autoradiography on film. For each drug concentration, a kinase activity index (KA) was determined by comparing the kinase activity in phosphorimager units (PIU) to that of the baseline sample. In some experiments, cold kinase assays were performed, as described (Uckun et. al., 1998, Clin. Cancer Res., 4:901-912).

RBL-2H3 mast cells [2] = assay: IgE/antigen-induced degranulation and mediator release; type: cell-based, rat; conditions: 1 h preincubation, DNP-BSA challenge; at ≧30 μM
Description: Vehicle treated control RBL-2H3 cells released 45.1±3.1% of their hexosaminidase contents after DNP-BSA challenge. […] Vehicle treated control cells released 11.3±1.3 pg LTC4, and 160±33.0 pg TNFα/10^6 mast cells. The results on LTC4 and TNFα release are expressed as percent of maximum control release from vehicle treated control mast cells. The data points represent the mean±SEM values obtained from 3-6 independent experiments. […] *P<0.05 and **P<0.0001 compared to control as determined by Student's t test.
Supernatants were removed and saved.

RBL-2H3 mast cells [3] = assay: IgE/antigen-induced activation (cell spreading, microtubule organization) by confocal microscopy; type: cell-based, rat; conditions: 30 μM, two hour incubation
Procedure: RBL-2H3 cells were cultured overnight on 22×22 mm coverslips at a cell density of 0.01×10^6/ml with […] DNP-IgE. Sensitized RBL-2H3 cells were then treated with 30 μM WHI-P131, vehicle, or control compounds WHI-P258 and WHI-P112 prior to challenge with DNP-BSA, as described in the legend of FIG. 4. After stimulation with DNP-BSA for 1 hour, cells were fixed in cold methanol for 15 minutes followed by permeabilization with PBS containing 0.1% Triton X-100. […] After washing 3 times with PBS-0.1% Triton X-100, cells were incubated with fluorescein labeled secondary antibody (Zymed, San Francisco, Calif.) for another 40 minutes. Cells were washed three times to remove unbound antibody. DNA labeling was performed by incubation of coverslips with toto-3 (Molecular Probes, Eugene, Oreg.) for 10 minutes. Excessive dye was washed with PBS-0.1% Triton X-100. Cells were visualized under MRC 1024 Laser Scanning Microscope after mounting with Vectashield (Vector laboratories, Inc, Burlingame, Calif.), as previously reported.
Confocol Microscopy: Staining of mast cells with primary and secondary antibodies followed by confocal laser scanning microscopy was performed as previously described in detail (Uckun et. al., 1998, Clin. Cancer Res., 4:901-912). After staining with appropriate primary and secondary antibodies, cells were washed three times to remove unbound antibody. DNA labeling was performed by incubation of coverslips with toto-3 (Molecular Probes, Eugene, Oreg.) for 10 min. Excessive dye was washed with PBS-0.1% triton X-100. Cells were visualized under MRC 1024 Laser Scanning Microscope after mounting with Vectashield (Vector laboratories, Inc, Burlingame, Calif.).
In a systematic effort aimed at elucidating the biologic consequences of JAK3 inhibition in mast cells, we first sought to determine if the JAK3 inhibitor WHI-P131 could prevent the IgE receptor/FcεRI-mediated activation of mast cells. Since the IgE receptor/FcεRI-mediated activation of mast cells results in a distinct morphologic transformation with marked cell spreading due to membrane ruffling, microtubule formation and actin polymerization (Apgar, 1997), we evaluated the effects of WHI-P131 on the activation-associated transformation of shape and surface topography of RBL-2H3 mast cells using confocal laser scanning microscopy (Ghosh et. al., 1998).

[4] = tested on: JAK3-dependent STAT activation; assay: EMSA, IL-2 triggered STAT activation in 32Dc11/IL2Rβ cells; type: cell-based; conditions: 10 μg/ml, 32Dc11/IL2Rβ cells
Procedure: Electrophoretic Mobility Shift Assays (EMSAs). EMSAs were performed to examine the effects of dimethoxyquinazoline compounds on cytokine-induced STAT activation (Goodman et. al., 1998). […] Cells were collected after 15 minutes and resuspended in lysis buffer (100 mM Tris-HCl pH 8.0, 0.5% NP-40, 10% glycerol, […], 0.1 mM NaVO3, 50 mM NaF, 150 mM NaCl, 1 mM DTT, 3 μg/ml Aprotinin, 2 μg/ml Pepstatin A, 1 μg/ml Leupeptin and 0.2 mM PMSF). Lysates were precleared by centrifugation for 30 min. Cell extracts (approximately 10 μg) were incubated with 2 μg of poly(dI-dC) for 30 minutes, followed by a 30 minutes incubation with 1ng of poly. nucleotide kinase-^32P labeled double stranded DNA oligonucleotide representing the IRF-1 STAT DNA binding sequence (Santa Cruz Biotechnology, Santa Cruz, Calif.). Samples were resolved by non-denaturing PAGE and visualized by autoradiography.

human JAK3 [5] = biological target: T1, human JAK3; assay: Immune complex kinase assay, JAK3 immunoprecipitated from KL2 EBV-transformed lymphoblastoid B cell line; type: biochemical; conditions: JAK3 immunoprecipitated from KL2 cells
Procedure: as §1, with “Following electrophoresis, kinase gels were dried onto Whatman 3M filter paper and subjected to phosphoimaging on a Molecular Imager (Bio-Rad, Hercules, Calif.) as well as autoradiography on film.” left out, “In some experiments, cold kinase assays were performed, as described (Uckun et. al., 1998, Clin. Cancer Res., 4:901-912).” left out

For `COc1cc2ncnc(Nc3cccc(O)c3)c2cc1OC` [WHI-P180, 4-(3′-hydroxyphenyl)-amino-6,7-dimethoxyquinazoline], the “potency relative to WHI-P258” value (mast cell; IgE/antigen induced mast cell responses) is given as “much more potent”, the “mast cell degranulation (β-hexasaminidase release)” value (mast cell; IgE/antigen induced) is given as “effectively inhibited” and the “secretion of newly synthesized mediators (LTC4 release)” value (mast cell; IgE/antigen induced) is given as “effectively inhibited”. For the same molecule, the IC50 (human JAK3 [1]) was 3 µM.
In the case of `COc1cc2ncnc(Nc3ccccc3)c2cc1OC` [WHI-P258, 4-(Phenyl)-amino-6,7-dimethoxyquinazoline], the “JAK3 inhibitory activity (in words)” value (human JAK3 [1]) is reported as “lacks JAK3 inhibitory activity” and the IC50 (human JAK3 [1]) is reported as over 300 µM.
`COc1cc2ncnc(Nc3cccc(Br)c3)c2cc1OC` [WHI-P79, 4-(3′-Bromophenyl)-amino-6,7-dimethoxyquinazoline] gave an IC50 (human JAK3 [1]) of over 300 µM.
With `COc1cc2ncnc(Nc3ccc(C)c(Br)c3)c2cc1OC` [WHI-P111, 4-(3′-Bromo-4-methylphenyl)-amino-6,7-dimethoxyquinazoline] the LTC4 release (RBL-2H3 mast cells [2]) was “did not inhibit”, the TNFα release (RBL-2H3 mast cells [2]) was “did not inhibit” and the “β-hexosaminidase release (degranulation)” value (RBL-2H3 mast cells [2]) was “did not inhibit”. For the same molecule, the “JAK3 inhibitory activity (in words)” value (human JAK3 [1]) was “do not inhibit JAK3” and the IC50 (human JAK3 [1]) was over 300 µM.
With `COc1cc2ncnc(Nc3cc(Br)ccc3Br)c2cc1OC` [WHI-P112, 4-(2′,5′-Dibromophenyl)-amino-6,7-dimethoxyquinazoline] the “IgE/antigen-induced mast cell activation (spreading and microtubule organization)” value (RBL-2H3 mast cells [3]) was “unable to produce any significant effects”, the LTC4 release (RBL-2H3 mast cells [2]) was “did not inhibit” and the TNFα release (RBL-2H3 mast cells [2]) was “did not inhibit”. The “β-hexosaminidase release (degranulation)” value (RBL-2H3 mast cells [2]) was “did not inhibit”, the “JAK3 inhibitory activity (in words)” value (human JAK3 [1]) was “do not inhibit JAK3” and the IC50 (human JAK3 [1]) was over 200 µM. For the same molecule, the “JAK3 inhibitory activity (in words)” value (human JAK3 [1]; listed as WHI-112) was “does not inhibit JAK3”.
With `COc1cc2ncnc(Nc3ccccc3O)c2cc1OC` [WHI-P132, 4-(2′-Hydroxylphenyl)-amino-6,7-dimethoxyquinazoline] the “JAK3 inhibitory activity (in words)” value (human JAK3 [1]) was “inactive”, the IC50 (human JAK3 [1]) was over 300 µM and the “JAK3-dependent STAT activation after stimulation with IL-2” value [4] was “not”.
Work on `COc1cc2ncnc(Nc3cc(Br)c(O)c(Br)c3)c2cc1OC` [WHI-P97, 4-(3′,5′-Dibromo-4′-hydroxylphenyl)-amino-6,7-dimethoxyquinazoline] yielded an IC50 (human JAK3 [1]) of 11 µM and an IC50 (human JAK3 [5]) of 11 µM.
